The text below walks through data of article PMC9675754, “Structure of the human heparan sulfate polymerase complex EXT1-EXT2” (Nature Communications, 2022).

To fix the notation:
B1: human EXT1 (exostosin-1), N-terminally truncated, aa29-aa746 (enzyme, UniProt Q16394 29-746, looked up)
chain: RASRSHSRREEHSGRNGLHHPSPDHFWPRFPDALRPFVPWDQLENEDSSVHISPRQKRDANSSIYKGKKCRMESCFDFTLCKKNGFKVYVYPQQKGEKIAESYQNILAAIEGSRFYTSDPSQACLFVLSLDTLDRDQLSPQYVHNLRSKVQSLHLWNNGRNHLIFNLYSGTWPDYTEDVGFDIGQAMLAKASISTENFRPNFDVSIPLFSKDHPRTGGERGFLKFNTIPPLRKYMLVFKGKRYLTGIGSDTRNALYHVHNGEDVVLLTTCKHGKDWQKHKDSRCDRDNTEYEKYDYREMLHNATFCLVPRGRRLGSFRFLEALQAACVPVMLSNGWELPFSEVINWNQAAVIGDERLLLQIPSTIRSIHQDKILALRQQTQFLWEAYFSSVEKIVLTTLEIIQDRIFKHISRNSLIWNKHPGGLFVLPQYSSYLGDFPYYYANLGLKPPSKFTAVIHAVTPLVSQSQPVLKLLVAAAKSQYCAQIIVLWNCDKPLPAKHRWPATAVPVVVIEGESKVMSSRFLPYDNIITDAVLSLDEDTVLSTTEVDFAFTVWQSFPERIVGYPARSHFWDNSKERWGYTSKWTNDYSMVLTGAAIYHKYYHYLYSHYLPASLKNMVDQLANCEDILMNFLVSAVTKLPPIKVTQKKQYKETMMGQTSRASRWADPDHFAQRQSCMNTFASWFGYMPLIHSQMRLDPVLFKDQVSILRKKYRDIERL
modifications: N-linked glycan at Asn330
notes: exostosin-1 (EXT1), human, residues 29-746, lacking the N-terminal transmembrane helix; Only obtained by co-expression with EXT2; Model built for aa89-aa728 with some loops missing; also called EXT1 WT; not shown: secreted alkaline phosphatase, N-terminal, cleaved; 8x His, C-terminal, kept
B2: human EXT2 (exostosin-2), N-terminally truncated, aa47-aa718 (enzyme, UniProt Q93063 47-718, looked up)
chain: PHSIESSNDWNVEKRSIRDVPVVRLPADSPIPERGDLSCRMHTCFDVYRCGFNPKNKIKVYIYALKKYVDDFGVSVSNTISREYNELLMAISDSDYYTDDINRACLFVPSIDVLNQNTLRIKETAQAMAQLSRWDRGTNHLLFNMLPGGPPDYNTALDVPRDRALLAGGGFSTWTYRQGYDVSIPVYSPLSAEVDLPEKGPGPRQYFLLSSQVGLHPEYREDLEALQVKHGESVLVLDKCTNLSEGVLSVRKRCHKHQVFDYPQVLQEATFCVVLRGARLGQAVLSDVLQAGCVPVVIADSYILPFSEVLDWKRASVVVPEEKMSDVYSILQSIPQRQIEEMQRQARWFWEAYFQSIKAIALATLQIINDRIYPYAAISYEEWNDPPAVKWGSVSNPLFLPLIPPQSQGFTAIVLTYDRVESLFRVITEVSKVPSLSKLLVVWNNQNKNPPEDSLWPKIRVPLKVVRTAENKLSNRFFPYDEIETEAVLAIDDDIIMLTSDELQFGYEVWREFPDRLVGYPGRLHLWDHEMNKWKYESEWTNEVSMVLTGAAFYHKYFNYLYTYKMPGDIKNWVDAHMNCEDIAMNFLVANVTGKAVIKVTPRKKFKCPECTAIDGLSLDQTHMVERSECINKFASVFGTMPLKVVEHRADPVLYKDDFPEKLKSFPNIGSL
modifications: N-linked glycan at Asn637
notes: exostosin-2 (EXT2), human, residues 47-718, lacking the N-terminal transmembrane helix; Only obtained by co-expression with EXT1; Model built for aa78-aa702 with some loops missing; also called EXT2 WT; not shown: secreted alkaline phosphatase, N-terminal, cleaved; 8x His, C-terminal, kept

The target in assay [1] is T1, EXT1-EXT2 complex (EXT1 GlcA-T site) (Homo sapiens, UniProt Q16394).
T1 construct: 1:1 heterodimer of Golgi-luminal parts, transmembrane helix removed (EXT1 aa29-746, EXT2 aa47-718), C-terminal 8xHis kept, secreted alkaline phosphatase fusion cut off with TEV; co-expressed in FreeStyle 293-F; about 160 kDa; with Exostosin-2
T1 sequence (Q16394 29-746): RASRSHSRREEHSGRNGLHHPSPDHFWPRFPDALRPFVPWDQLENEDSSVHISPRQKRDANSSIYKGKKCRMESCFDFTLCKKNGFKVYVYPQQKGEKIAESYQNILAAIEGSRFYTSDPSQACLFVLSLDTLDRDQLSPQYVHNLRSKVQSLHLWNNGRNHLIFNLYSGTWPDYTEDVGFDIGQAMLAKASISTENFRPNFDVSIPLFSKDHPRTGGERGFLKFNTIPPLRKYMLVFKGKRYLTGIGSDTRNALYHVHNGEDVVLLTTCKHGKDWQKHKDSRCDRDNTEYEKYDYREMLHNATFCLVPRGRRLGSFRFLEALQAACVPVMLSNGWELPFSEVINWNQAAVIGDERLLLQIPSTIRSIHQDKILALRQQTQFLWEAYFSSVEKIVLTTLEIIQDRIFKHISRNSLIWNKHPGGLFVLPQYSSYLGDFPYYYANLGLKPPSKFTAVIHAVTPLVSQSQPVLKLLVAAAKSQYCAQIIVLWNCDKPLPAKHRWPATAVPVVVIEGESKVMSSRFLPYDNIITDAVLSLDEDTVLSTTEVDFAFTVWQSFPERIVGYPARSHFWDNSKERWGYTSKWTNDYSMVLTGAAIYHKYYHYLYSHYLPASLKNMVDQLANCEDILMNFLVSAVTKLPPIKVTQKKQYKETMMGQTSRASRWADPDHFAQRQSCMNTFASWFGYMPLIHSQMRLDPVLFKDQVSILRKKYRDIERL
T1 sequence (Q93063 47-718 partner): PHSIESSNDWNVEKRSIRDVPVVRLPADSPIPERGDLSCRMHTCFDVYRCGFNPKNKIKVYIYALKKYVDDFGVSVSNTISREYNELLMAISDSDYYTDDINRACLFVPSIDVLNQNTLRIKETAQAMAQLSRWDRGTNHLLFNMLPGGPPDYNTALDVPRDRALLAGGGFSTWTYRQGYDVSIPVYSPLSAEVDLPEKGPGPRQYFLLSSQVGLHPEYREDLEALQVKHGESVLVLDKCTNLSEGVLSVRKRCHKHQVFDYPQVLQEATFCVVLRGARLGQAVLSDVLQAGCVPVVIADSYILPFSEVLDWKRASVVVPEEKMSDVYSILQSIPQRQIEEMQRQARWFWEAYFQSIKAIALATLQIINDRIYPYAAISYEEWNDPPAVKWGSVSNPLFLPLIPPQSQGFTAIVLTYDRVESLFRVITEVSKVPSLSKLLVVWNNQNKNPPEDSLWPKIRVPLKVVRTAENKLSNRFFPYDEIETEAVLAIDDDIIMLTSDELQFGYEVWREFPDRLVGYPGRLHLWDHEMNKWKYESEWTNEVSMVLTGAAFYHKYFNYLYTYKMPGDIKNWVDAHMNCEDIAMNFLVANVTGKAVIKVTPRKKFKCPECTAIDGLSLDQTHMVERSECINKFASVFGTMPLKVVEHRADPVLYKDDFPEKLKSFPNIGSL
Put plainly: FACE glycosyl transfer assay. To be noted: acceptor Alexa Fluor 430-labelled dp9 5 uM; 1 mM UDP-GlcA; 10 mM MnCl2; pH 7.2; 30 C; EXT1 GlcA-T domain. Type of assay: biochemical.

In assay [2] the target is T2, EXT1-EXT2 complex (GlcNAc-T sites of EXT1 and EXT2) (Homo sapiens, UniProt Q16394+Q93063).
T2 construct: same complex as P1; separate entry only because each chain has its own GlcNAc-T site; 1:1 heterodimer (EXT1 aa29-746, EXT2 aa47-718), C-terminal 8xHis kept, alkaline phosphatase fusion cut off with TEV; FreeStyle 293-F
T2 sequence (Q16394 29-746): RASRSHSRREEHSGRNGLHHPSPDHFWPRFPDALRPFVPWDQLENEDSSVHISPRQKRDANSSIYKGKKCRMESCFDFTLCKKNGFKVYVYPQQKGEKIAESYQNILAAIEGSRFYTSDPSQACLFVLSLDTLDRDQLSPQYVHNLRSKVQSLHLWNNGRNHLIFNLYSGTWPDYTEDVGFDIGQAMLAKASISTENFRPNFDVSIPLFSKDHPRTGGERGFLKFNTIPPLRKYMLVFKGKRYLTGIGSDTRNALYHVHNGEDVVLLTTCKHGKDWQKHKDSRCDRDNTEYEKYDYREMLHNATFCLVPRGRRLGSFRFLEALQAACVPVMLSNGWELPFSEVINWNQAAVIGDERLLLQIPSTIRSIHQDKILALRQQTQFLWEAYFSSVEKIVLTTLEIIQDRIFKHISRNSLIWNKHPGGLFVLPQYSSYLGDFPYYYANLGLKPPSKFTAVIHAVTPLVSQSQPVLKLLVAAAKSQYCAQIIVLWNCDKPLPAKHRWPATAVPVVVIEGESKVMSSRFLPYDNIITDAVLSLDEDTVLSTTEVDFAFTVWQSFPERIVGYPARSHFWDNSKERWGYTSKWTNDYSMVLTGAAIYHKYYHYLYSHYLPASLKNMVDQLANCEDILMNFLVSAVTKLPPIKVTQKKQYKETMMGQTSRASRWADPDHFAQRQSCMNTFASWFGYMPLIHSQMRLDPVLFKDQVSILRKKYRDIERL
T2 sequence (Q93063 47-718): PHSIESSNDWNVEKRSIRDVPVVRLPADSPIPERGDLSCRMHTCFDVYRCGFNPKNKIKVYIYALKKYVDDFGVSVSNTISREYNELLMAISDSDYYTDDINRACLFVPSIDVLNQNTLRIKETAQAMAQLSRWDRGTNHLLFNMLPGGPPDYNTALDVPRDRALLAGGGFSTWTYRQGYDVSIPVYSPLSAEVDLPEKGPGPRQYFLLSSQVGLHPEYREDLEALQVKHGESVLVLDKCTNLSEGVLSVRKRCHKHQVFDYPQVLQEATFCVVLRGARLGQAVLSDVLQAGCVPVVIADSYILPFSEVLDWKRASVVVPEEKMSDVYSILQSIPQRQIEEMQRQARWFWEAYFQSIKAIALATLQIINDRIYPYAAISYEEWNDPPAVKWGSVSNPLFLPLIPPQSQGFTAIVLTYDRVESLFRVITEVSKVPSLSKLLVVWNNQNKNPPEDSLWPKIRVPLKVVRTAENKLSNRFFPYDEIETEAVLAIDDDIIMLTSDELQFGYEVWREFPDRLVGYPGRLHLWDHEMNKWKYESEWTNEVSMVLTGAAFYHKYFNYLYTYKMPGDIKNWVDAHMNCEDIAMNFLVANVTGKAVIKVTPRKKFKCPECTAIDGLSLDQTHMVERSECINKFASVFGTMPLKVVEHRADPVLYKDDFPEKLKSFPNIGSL
Put plainly: FACE glycosyl transfer assay. In kind it is biochemical. The settings on record: acceptor Alexa Fluor 430-labelled dp8 5 uM; 1 mM UDP-GlcNAc; 10 mM MnCl2; pH 7.2; 30 C; GlcNAc-T domains of EXT1 and EXT2.

The target of assay [3] is T1, EXT1-EXT2 complex (EXT1 GlcA-T site). In words: cryo-EM structure, […] A. In kind it is binding. To be noted: EXT1 GlcA-T active site; UDP-GlcA, UDP-GlcNAc and MnCl2 1 mM each added, only UDP seen; pH 7.2.
In assay [4] the target is B2. Put plainly: cryo-EM structure; 0.4 mg/mL purified, co-expressed EXT1-EXT2 with 1 mM UDP-GlcNAc, 1 mM UDP-GlcA and 1 mM MnCl2; single-particle analysis, 2.8 Å. The settings on record: both partners purified.
Assay [5] concerns the target T3, human EXT1 aa29-aa746 D162N/D164N (human, UniProt Q16394 29-746, D162N | D164N).
T3 construct: exostosin-1 (EXT1), human, residues 29-746, with point mutations in the GlcA-T domain; also called EXT1 D162N/D164N; source: FreeStyle 293-F cells, co-expressed with wild-type EXT2, purified as the wild-type complex; not shown: secreted alkaline phosphatase, N-terminal, cleaved; 8x His, C-terminal, kept
T3 sequence (looked up): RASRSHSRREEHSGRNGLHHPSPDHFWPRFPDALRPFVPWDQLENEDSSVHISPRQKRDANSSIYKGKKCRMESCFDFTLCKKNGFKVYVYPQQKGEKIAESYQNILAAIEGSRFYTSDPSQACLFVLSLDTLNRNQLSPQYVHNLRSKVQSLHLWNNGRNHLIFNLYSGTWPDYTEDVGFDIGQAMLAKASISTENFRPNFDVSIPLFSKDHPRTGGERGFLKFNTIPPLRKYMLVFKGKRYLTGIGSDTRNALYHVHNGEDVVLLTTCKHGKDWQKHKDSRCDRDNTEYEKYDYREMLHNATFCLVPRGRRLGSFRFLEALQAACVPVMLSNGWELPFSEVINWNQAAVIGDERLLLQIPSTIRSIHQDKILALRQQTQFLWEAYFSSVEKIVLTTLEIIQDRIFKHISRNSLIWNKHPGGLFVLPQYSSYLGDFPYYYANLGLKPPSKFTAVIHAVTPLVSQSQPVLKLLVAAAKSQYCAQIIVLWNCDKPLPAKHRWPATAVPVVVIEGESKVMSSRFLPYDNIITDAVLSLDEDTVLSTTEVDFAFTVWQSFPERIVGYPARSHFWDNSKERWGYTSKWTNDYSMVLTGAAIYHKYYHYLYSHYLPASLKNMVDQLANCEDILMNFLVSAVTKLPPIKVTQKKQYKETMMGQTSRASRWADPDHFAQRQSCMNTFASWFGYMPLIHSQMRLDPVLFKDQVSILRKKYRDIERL
Put plainly: negative stain EM; purified complex diluted to 0.02 mg/mL in buffer A (50 mM Tris pH 7.8, 150 mM NaCl); mica-carbon flotation. To be noted: both partners purified.

In assay [6] the target is B1. Put plainly: cryo-EM structure; 0.4 mg/mL purified, co-expressed EXT1-EXT2 with 1 mM UDP-GlcNAc, 1 mM UDP-GlcA and 1 mM MnCl2; single-particle analysis, 2.8 Å. The settings on record: both partners purified.

As for `O=C(O)[C@H]1O[C@H](OP(=O)(O)OP(=O)(O)OC[C@H]2O[C@@H](n3ccc(=O)[nH]c3=O)[C@H](O)[C@@H]2O)[C@H](O)[C@@H](O)[C@@H]1O` [UDP-GlcA], in assay [1], the “FACE glycosyl transfer assay” value was “the addition of a GlcA moiety onto dp9 enhanced the migration rate”.
As for `CC(=O)N[C@H]1[C@@H](OP(=O)(O)OP(=O)(O)OC[C@H]2O[C@@H](n3ccc(=O)[nH]c3=O)[C@H](O)[C@@H]2O)O[C@H](CO)[C@@H](O)[C@@H]1O` [UDP-GlcNAc], the “FACE glycosyl transfer assay” value in assay [2] is reported as “the transfer of a GlcNAc residue onto dp8 led to a slower migration rate”.
For `O=c1ccn([C@@H]2O[C@H](COP(=O)(O)OP(=O)(O)O)[C@@H](O)[C@H]2O)c(=O)[nH]1` [UDP], the “cryo-EM structure, 2.8 A” value in assay [3] is recorded as “we found an additional EM density that fits a UDP ligand”.
One may read the stoichiometry N as a count of units in the complex or per binding partner. Consider B1, for which, in assay [4], the “stoichiometry N” value worked out at 1.
Consider B2, for which the binding result in assay [5] and in assay [6] was “binds” throughout.
